According to patent US8802704B2, “Oxadiazole derivatives” (Merck Serono SA, priority 2009, dated 2014):
Structures can show the parent of a compound that is named as a salt. Where two headings read alike, the source gives them in different places.

Key:
[1] = Pharmacokinetics (PK parameters from lymphopenia, mouse); type: in vivo; conditions: PK-PD (30 mpk)
Procedure: (§1) Female C57BL/6 mice (Elevage Janvier) (8 week old) receive S1P agonists by oral route. Blood is sampled in heparinized (100 IU/kg, ip) mice by intracardiac or retroorbital puncture under isoflurane anesthesia 2 to 120 hrs after drug treatment. The white blood cells (lymphocytes and neutrophils) are counted using a Beckman/Coulter counter. The quality of blood sampling is assessed by counting erythocytes and platelets.
The pharmacoinetic properties of compound of example 70, N-(2-fluoro-4-{5-[2′-methyl-2-(trifluoromethyl)biphenyl-4-yl]-1,2,4-oxadiazol-3-yl}benzyl)-N-methylglycine, are the following: […]

S1P1 [2] = molecular target: T1, S1P1 (Homo sapiens, UniProt P21453); experiment: S1P1 internalization assay in S1P1-U2OS cells (cell imaging); type: cell-based; conditions: U2OS cells expressing S1P1-EGFP, 1 hour
Outline: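 U2OS cells stably expressing human S1P1-EGFP, serum-starved 2 h in medium with 0.1% fatty-acid-free BSA, then treated with compound for 1 h at 37° C. After paraformaldehyde fixation and Hoechst staining, internalization imaged as S1P1-EGFP spot count per nucleus.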
Target sequence in this assay (P21453 whole entry): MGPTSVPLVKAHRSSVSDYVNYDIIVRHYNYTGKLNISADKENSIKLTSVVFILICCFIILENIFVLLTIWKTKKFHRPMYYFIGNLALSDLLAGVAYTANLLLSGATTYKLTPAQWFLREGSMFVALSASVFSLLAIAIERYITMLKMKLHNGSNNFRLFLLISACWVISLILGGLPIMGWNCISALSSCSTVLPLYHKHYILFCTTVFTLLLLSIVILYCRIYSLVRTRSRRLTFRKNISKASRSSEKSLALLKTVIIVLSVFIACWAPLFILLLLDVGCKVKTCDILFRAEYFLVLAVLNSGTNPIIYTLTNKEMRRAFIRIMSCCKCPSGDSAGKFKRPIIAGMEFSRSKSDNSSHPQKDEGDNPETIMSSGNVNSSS

lymphocytes = experiment: Model of S1P agonists-induced lymphopenia in mice; type: in vivo; conditions: oral route
Procedure: as §1

S1P1 [3] = molecular target: T1, S1P1; experiment: Receptor binding assay, [33P]sphingosine 1-phosphate competition (SPA), S1P1
Target sequence in this assay (P21453 whole entry, species assumed): as the sequence (P21453 whole entry) above

S1P3 = S1P3 (Homo sapiens, UniProt Q99500); experiment: Receptor binding assay, [33P]sphingosine 1-phosphate competition (SPA), S1P3
S1P1 [4] = molecular target: T1, S1P1; experiment: 35S-GTPγS binding on membranes from CHO cells expressing S1P1; type: biochemical; conditions: read-out: S1P1/GTPG EC50
Procedure: Membranes were prepared from CHO cells expressing S1P1 or S1P3 for use in ligand and […] binding studies. Cells were suspended in 50 mM TRIS, pH 7.4, 2 mM EDTA, 250 mM Sucrose (buffer A) and 1× Complete protease inhibitor cocktail (Roche), and disrupted at 4° C. by N2 decompression using a cell disruption bomb (Parr Instrument). Following centrifugation at 1000 RPM for 10 min at 4° C., the supernatant was diluted (2×) in buffer A and centrifuged again at 19000 RPM for 75 min at 4° C. The pellet was then suspended in 10 mM HEPES, pH 7.4, 1 mM EDTA, 250 mM Sucrose (Buffer B), and 1× Complete EDTA-free protease inhibitor cocktail and homogenized using a potter. Membranes were flash frozen in liquid N2 and stored at −80° C.
Membranes (1 to 10 μg protein) prepared as described above, were incubated in 96-well Scintiplates (PerkinElmer) with test compounds diluted in DMSO, in 140 μl of 20 mM HEPES, pH 7.4, 10 mM MgCl2, 2 μg/well Saponin, 0.2% fatty acid free BSA (Assay buffer), 125 mM NaCl and 1.5 μM GDP. […] Supernatant was discarded and membrane bound radioactivity was measured on a PerkinElmer 1450 MicroBeta counter. Triplicate samples were averaged and expressed as % response relative to S1P activation in absence of compound (n=2).
The “potency” or the “activity” of the compounds is determined by the EC50 values as evaluated in the above described 35S-GTPγS binding assay.
Target sequence in this assay (P21453 whole entry, species assumed): as the sequence (P21453 whole entry) above

[5] = female, C57BL/6, plasma, po, 30 mg/kg
[6] = 96 well-plate, read-out: S1P1 binding Ki (M) (96 well-plate)
[7] = 384 well-plate, read-out: S1P1 binding Ki (M) (384 well-plate)
[8] = 96 well-plate, read-out: S1P3 binding Ki (M) (96 well-plate)
[9] = 384 well-plate, read-out: S1P3 binding Ki (M) (384 well-plate)

Sequence of S1P3 (Q99500 whole entry, species assumed): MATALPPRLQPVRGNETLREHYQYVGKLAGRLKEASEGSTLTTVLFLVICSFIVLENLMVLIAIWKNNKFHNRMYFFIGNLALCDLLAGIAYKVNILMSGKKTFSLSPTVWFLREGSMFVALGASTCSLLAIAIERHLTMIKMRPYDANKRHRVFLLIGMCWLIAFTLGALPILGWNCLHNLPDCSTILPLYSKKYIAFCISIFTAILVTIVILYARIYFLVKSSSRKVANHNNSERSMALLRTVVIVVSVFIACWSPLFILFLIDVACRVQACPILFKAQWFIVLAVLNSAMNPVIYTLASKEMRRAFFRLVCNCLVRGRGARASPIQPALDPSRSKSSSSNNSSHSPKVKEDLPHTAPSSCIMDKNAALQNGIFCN

EC50 (S1P1 [2]) [nM] | Ki (S1P1 [3]; [6]) [M] | Ki (S1P1 [3]; [7]) [M] | Ki (S1P3; [8]) [M] | Ki (S1P3; [9]) [M] | melting point [°C] | Structure (SMILES) | also measured
13 | 6.81e-10 | 2.19e-09 | 4.43e-07 | 4.11e-07 |  | Cc1ccccc1-c1ccc(-c2nc(-c3ccc(CN(C)CC(=O)O)c(F)c3)no2)cc1C(F)(F)F [Example 70, N-(2-fluoro-4-{5-[2′-methyl-2-(trifluoromethyl)biphenyl-4-yl]-1,2,4-oxadiazol-3-yl}benzyl)-N-methylglycine] | Lymphe node/plasma ratio: 24 h ([1]; 24 h): 4.4; Lymphe node/plasma ratio: 48 h ([1]; 48 h): 4.0; Kp ([1]; female, C57BL/6, brain, oral, 30 mg/kg, ratio of AUCZ, read-out: Brain/plasma ratio: AUCZ (h * ng/ml)): 2.4; AUC(0-inf) [1, 5]: 104 µg·h/mL; CL/F [1, 5]: 5 mL/min/kg; Cmax [1, 5]: 8780 ng/mL; Tmax [1, 5]: 2 h; half-life [1, 5]: 450 min; % of lymphopenia in mouse at 48 h (lymphocytes): 72 +/− 8%
8.75 | 4.47e-10 | 1.93e-09 | 2.36e-07 | 1.68e-07 |  | Cc1ccccc1-c1ccc(-c2nc(-c3cccc(CN(C)CC(=O)O)c3)no2)cc1C(F)(F)F [Example 14, N-methyl-N-(3-{5-[2′-methyl-2-(trifluoromethyl)biphenyl-4-yl]-1,2,4-oxadiazol-3-yl}benzyl)glycine] | EC50 (S1P1 [4]): 1.24 nM
 |  |  |  |  | 210 | CCOc1cc(-c2nc(-c3ccc(CN(C)CC(=O)O)cc3)no2)ccc1-c1ccccc1C(F)(F)F (as salt: hydrochloride) [Example 115, N-(4-{5-[2-ethoxy-2′-(trifluoromethyl)biphenyl-4-yl]-1,2,4-oxadiazol-3-yl}benzyl)-N-methylglycine] | 
 |  |  |  |  | 212 | CN(CC(=O)O)Cc1cc(F)cc(-c2noc(-c3ccc(-c4ccccc4C(F)(F)F)c(Cl)c3)n2)c1 (as salt: hydrochloride) [Example 136, N-(3-{5-[2-chloro-2′-(trifluoromethyl)biphenyl-4-yl]-1,2,4-oxadiazol-3-yl}-5-fluorobenzyl)-N-methylglycine] | 
